Measured values from patent publication US8420653B2, “Pyrimidine compounds and their uses” (Orchid Chemicals & Pharmaceuticals Limited, priority 2008, dated 2013).

Legend:
[1] = test system: purified recombinant COX-1; experiment: COX-1 enzyme based assay; type: biochemical
Protocol: (§1) COX-1 and COX-2 enzyme based assays were carried out to check the inhibitory potential of the test compounds on the production of prostaglandin by purified recombinant COX-1/COX-2 enzyme (Proc. Nat. Acad. Sci. USA, 88, 2692-2696, 1991; J. Clin. Immunoassay 15, 116-120, 1992). In this assay, the potential of the test compound to inhibit the production of prostaglandin either by COX-1 or COX-2 from arachidonic acid (substrate) was measured. This was an enzyme based in-vitro assay to evaluate selective COX inhibition with good reproducibility.
(§2) Arachidonic acid was converted to PGH2 (Intermediate product) by COX1/COX-2 in the presence or absence of the test compound. The reaction was carried out at 37° C. and after 2 minutes it was stopped by adding 1M HCl. Intermediate product PGH2 was converted to a stable prostanoid product PGF2α by SnCl2 reduction. The amount of PGF2α produced in the reaction was inversely proportional to the COX inhibitory potential of the test compound. The prostanoid product was quantified via enzyme immunoassay (EIA) using a broadly specific antibody that binds to all the major forms of prostaglandin, using Cayman ELISA kit as per the procedure outlined by the manufacturer (Cayman Chemicals, Ann Arbor, USA).

IL-6 = experiment: In vitro measurement of Interleukin-6 in human PBMC; type: cell-based; details: Table XVa summary
Protocol: In Vitro Measurement of Interleukin-6 (IL-6)
This assay determines the effect of test compounds on the production of IL-6 in human PBMC (Physiol. Res. 52, 593-598, 2003). Compounds were tested for their ability to inhibit the activity of IL-6 in human PBMC. PBMC were isolated from blood using BD Vacutainer CPT™ Cell preparation tube (BD Bio Science) and suspended in RPMI medium. The test compounds were pre-incubated with PBMC (0.5 million/incubation well) for 15 minutes at 37° C. and then stimulated with Lipopolysaccharide (Escherichia coli: B4; 1 μg/ml) for 18 hours at 37° C. in 5% CO2. The levels of IL-6 in cell culture medium were estimated using enzyme-linked immunosorbent assay performed in a 96 well format as per the procedure of the manufacturer (Cayman Chemical, Ann Arbor, USA).

[2] = molecular target: T1, purified recombinant COX-2 (Homo sapiens, UniProt P35354); experiment: COX-2 enzyme based assay; type: biochemical; details: for inhibition at 10 µM: read-out: % Inhibition in rEnzyme Assay COX-2; for COX2 at 10 μm: Table XVa summary
T1 sequence (P35354 18-604): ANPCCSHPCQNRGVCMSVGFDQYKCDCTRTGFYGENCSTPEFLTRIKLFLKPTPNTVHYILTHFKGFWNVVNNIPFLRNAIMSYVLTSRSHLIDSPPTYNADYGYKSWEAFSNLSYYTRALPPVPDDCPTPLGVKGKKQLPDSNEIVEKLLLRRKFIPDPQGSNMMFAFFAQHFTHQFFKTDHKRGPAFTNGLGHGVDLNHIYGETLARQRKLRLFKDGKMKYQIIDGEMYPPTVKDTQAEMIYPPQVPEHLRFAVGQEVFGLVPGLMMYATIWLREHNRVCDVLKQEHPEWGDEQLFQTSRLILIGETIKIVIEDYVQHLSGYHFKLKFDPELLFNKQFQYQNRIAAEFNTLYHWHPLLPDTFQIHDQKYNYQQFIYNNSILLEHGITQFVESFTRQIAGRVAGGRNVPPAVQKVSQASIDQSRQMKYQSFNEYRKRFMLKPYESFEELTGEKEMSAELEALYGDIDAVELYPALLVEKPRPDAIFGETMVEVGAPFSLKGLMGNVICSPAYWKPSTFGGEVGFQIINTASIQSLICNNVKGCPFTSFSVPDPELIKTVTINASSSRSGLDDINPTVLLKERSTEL
Protocol: as §1, §2

TNF-α = experiment: LPS induced sepsis for measurement of TNF-α inhibition in mice; type: in vivo; details: mice; for inhibition in vivo at 50 mg/kg: Mus musculus, 1.5 h, oral, serum 90 minutes after LPS; for TNF -α in vivo (mice): Table XVa summary, unit assumed
Protocol: LPS Induced Sepsis for Measurement of TNF-α Inhibition in Mice
The LPS induced sepsis model in mice was performed as described by Les sekut et al (J Lab Clin Med 1994; 124, 813-20). Female Swiss albino mice were selected and the body weights were equivalent within each group. The mice were fasted for 20 hours with free access to water. The mice were dosed orally with the test compound suspended in vehicle containing 0.5% Tween 80 in 0.25% Carboxy-methylcellulose sodium salt. The control mice were administered the vehicle alone. After 30 minutes of oral dosing, mice were injected with 500 μg of Lipopolysaccharide (Escherichia coli, LPS: B4 from Siga) in phosphate buffer saline solution into the intraperitoneal cavity of the mice. After 90 minutes of LPS administration mice were bled via retro-orbital sinus puncture. Blood samples were stored overnight at 4° C. Serum samples were collected by centrifuging the samples at 4000 rpm for 15 minutes at 4° C. Immediately the serum samples were analyzed for TNF-α levels using commercially available mouse TNF-α ELISA kit (Amersham Biosciences) and assay was performed by the manufacturer instruction.
ED50 Measurement of TNF Alpha Inhibition in Mice Sepsis Model

DSS Induced colitis = experiment: IBD-DSS model (DSS induced colitis); type: in vivo, mice; details: Table XVb summary
Protocol: Inhibitory Activity in IBD-DSS Model
DSS Induced colitis test was performed as described by Axelsson et al., 1998. Male Balb/c mice were selected in the age of 7-8 weeks for the study. Colitis in mice was induced by providing DSS (2%) in the drinking water from day 1 to 6. Mice were dosed from Day 1 to 6 with test compound suspended in vehicle containing 0.25% carboxymethyl cellulose and 0.5% Tween 80. The control animals received vehicle alone. Body weight and disease activity index was recorded daily during the experiment. After 6 days of treatment, animals were sacrificed; colon weight and colon length was recorded.

[3] = test system: Oxazolone induced dermatitis; experiment: Psoriasis model, oxazolone induced dermatitis; type: in vivo, mice; details: Table XVb summary, dermatitis model not specified
Protocol: Inhibitory Activity in Psoriasis Model Oxazolone induced dermatitis in mice was performed as described in the literature. Female Balb/c were selected in the age of 6-7 weeks for the study and 20-25 g. Mice were sensitized with oxazolone (15%) from Day 1 to day 6 by applying it on the shaved abdomen. Elicitation was done with oxazolone (2%) on the ear on day 7. Test compounds were applied topically on the ear 15 minutes and 6 hours post oxazolone application on day 7. 24 hours after oxazolone application, ear thickness is measured and ear were excised under anesthesia and weighed.

| % Inhibition in rEnzyme Assay COX-1 ([1]; 10 μM) [%] | COX1 at 10 μm ([1]; Table XVa summary, 10 μm) | inhibition at 10 µM [2] [%] | COX2 at 10 μm [2] | Structure (SMILES) | IL-6 at 10 μm (IL-6) | inhibition in vivo at 50 mg/kg (TNF-α) [%] | TNF -α in vivo (mice) (TNF-α) [%] | IBD DAI (DSS Induced colitis) | Psoriasis Ear thickness [3] |
| --- | --- | --- | --- | --- | --- | --- | --- | --- | --- |
| 32 | 32 | 31 | 31 | CCOC(=O)C1CCN(c2nc(C(F)(F)F)nc(-c3ccc(F)cc3)c2-c2cccc(S(N)(=O)=O)c2)CC1 [Example 59, Ethyl-1-[5-(3-aminosulfonylphenyl)-6-(4-fluorophenyl)-2-(trifluoromethyl)pyrimidin-4-yl]piperidine-4-carboxylate] | 37 | 87.2 | 82 |  |  |
|  |  | 20 | 20 | NS(=O)(=O)c1cccc(-c2c(-c3ccc(F)cc3)nc(C(F)(F)F)nc2-n2ccnc2)c1 [Example 80, 3-[4-(4-Fluorophenyl)-6-(1H-imidazol-1-yl)-2-(trifluoromethyl)pyrimidin-5-yl]benzenesulfonamide] |  | 82.8 | 87 | 35 | 19 |
